Values of other authors, collected in patent US20180100201A1, “TUMOR AND MICROENVIRONMENT GENE EXPRESSION, COMPOSITIONS OF MATTER AND METHODS OF USE THEREOF” (The Broad Institute Inc., priority 2015, published 2018).

Tested on: Factor VII
Settings: LNP siRNA systems containing these lipids

Compound | gene silencing potency in hepatocytes in vivo, series
CCCCC/C=C\C/C=C\CCCCCCCCOCC(CN(C)C)OCCCCCCCC/C=C\C/C=C\CCCCC (stereo not shown) [DLinDMA, 1,2-dilinoleyloxy-3-N,N-dimethylaminopropane] | DLinKC2-DMA>DLinKDMA>DLinDMA>>DLinDAP
CCCCC/C=C\C/C=C\CCCCCCCC(=O)OCC(CN(C)C)OC(=O)CCCCCCC/C=C\C/C=C\CCCCC (stereo not shown) [DLinDAP, 1,2-dilineoyl-3-dimethylammonium-propane] | DLinKC2-DMA>DLinKDMA>DLinDMA>>DLinDAP
CCCCC/C=C\C/C=C\CCCCCCCCC1(CCCCCCCC/C=C\C/C=C\CCCCC)OCC(CCN(C)C)O1 (stereo not shown) [DLinKC2-DMA, 1,2-dilinoleyl-4-(2-dimethylaminoethyl)-[1,3]-dioxolane] | DLinKC2-DMA>DLinKDMA>DLinDMA>>DLinDAP
1,2-dilinoleyloxy-keto-N,N-dimethyl-3-aminopropane [DLinKDMA] | DLinKC2-DMA>DLinKDMA>DLinDMA>>DLinDAP
